SMILES strings stand for the structures. Like-named read-outs stand apart in the source and are kept apart here.

Data set [1] is described as follows: Chemical stability of MPs in aqueous solution, monitored by HPLC. It counts as physicochemical. Conditions: aqueous solution pH 6.8, 21° C., monitored at 24 h intervals up to 3 weeks. The protocol:
Aqueous solutions of MPs (50 μg ml-1; pH 6.8) were incubated at 21° C. in amber HPLC vials. For sample preparation, 50 μl of an acetone solution (1 mg ml-1) was diluted to the final concentration with methanol (425 μl), water (500 μl) and 25 μl of 1-Indanol (1.0 mg ml-1 solution in acetone) as internal standard. […] The column was operated at 35° C. with a flow rate of 0.25 ml per min. Compounds eluted from the column were detected with a Diode array detector. Relative quantity of remaining (non-degraded) product was determined by comparison to the internal standard.

Another data set deals with T1, OsD14 (Oryza sativa subsp. japonica, UniProt Q10QA5).
T1 construct: made in house; host or cells: E. coli BL21 (DE3)
T1 sequence (Q10QA5 1-318): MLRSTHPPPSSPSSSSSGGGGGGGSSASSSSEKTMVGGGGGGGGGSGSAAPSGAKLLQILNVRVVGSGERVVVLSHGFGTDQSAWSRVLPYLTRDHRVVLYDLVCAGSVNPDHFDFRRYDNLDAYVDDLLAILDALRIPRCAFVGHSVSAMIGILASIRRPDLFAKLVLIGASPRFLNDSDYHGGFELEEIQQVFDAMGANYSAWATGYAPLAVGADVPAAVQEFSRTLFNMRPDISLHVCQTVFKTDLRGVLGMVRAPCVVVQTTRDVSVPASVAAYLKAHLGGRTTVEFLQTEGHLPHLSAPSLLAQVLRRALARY
Briefly: YLG (Yoshimulactone Green) competitive hydrolysis assay. In kind it is biochemical, rice. The source says: (§1) Striga hermonthica ShHTL7 cDNA, GenBank accession KR013127 was kindly provided by Prof. Tadao Asami (The University of Tokyo, Japan). Arabidopsis thaliana D14 (AtD14) cDNA, GenBank accession AY097402 was synthesized and cloned into pUC57 (GenScript). ShHTL7 and OsD14 cDNAs were amplified by RT-PCR using the primers shown in Table 2, digested with BamHI and XhoI, and ligated into BamHI/XhoI digested pGEX-6P-1 expression vector (GE Healthcare). Integrity of plasmids was confirmed by sequencing (KAUST Bioscience Core Lab). The plasmids were then transformed into E. coli BL21 (DE3) cells. The cells were grown in LB broth containing ampicillin ([…]), incubated at 37° C. until OD600 of 0.6 and induced with 0.1 mM isopropyl-β-D-thiogalactopyranoside (IPTG) at 16° C. for 16 h. Harvested cells were re-suspended in lysis buffer: 50 mM Tris-HCl (pH 8.0), 200 mM NaCl, 0.5% Tween-20 and 2 mM dithiothreitol (DTT). After sonication on ice for 10 mins, the lysate was centrifuged at 25,000 rpm for 30 min at 4° C. Supernatant was allowed to bind to glutathione-sepharose beads (GE Healthcare) for 2 h at 4° C., washed 3 times with buffer (50 mM Tris-HCl (pH 8.0), 200 mM NaCl, 2 mM DTT), and eluted by cleaving GST moiety with PreScission™ Protease (GE Healthcare) at 4° C. overnight. Eluted protein was further purified by gel filtration using HiLoad 16/60 Superdex200 prep grade column (GE Healthcare) on an AKTA prime system (GE Healthcare) in gel filtration buffer (10 mM HEPES pH 7.5, 50 mM KCl and 2 mM DTT). Protein eluted as a sharp single peak and purity was judged by 4-15% SDS-PAGE (Bio-Rad). Purified protein was concentrated using an Amicon 10K filter unit (Merck Millipore) and stored at −80° C. until use. Similar expression and purification protocol was followed for OsD14 protein, except that OsD14 was eluted from Glutathione resins using 0.2 mM reduced Glutathione (Sigma) without cutting GST tag.
In vitro YLG hydrolysis assays were performed as described by Tsuchiya et al., 2015. Hydrolysis assays were carried out using 0.15 μM of recombinant protein OsD14 in a reaction buffer (100 mM PBS buffer, pH 7.3) with 0.1% dimethylsulfoxide (DMSO) at a 300 μl volume on a 96-well black plate (Thermo). For competitive assays, (±) GR24 and (±) MPs at range between 0.03 to 10 μM (or 100 μM) were co-incubated with 0.3 μM of YLG and reacted at 30° C. incubator for 15 min. Fluorescent intensity was measured with excitation at 485 nm and detected at 535 nm. IC50 values were calculated online (http://www.ic50.tk/index.html). Later, values were converted to the existing conditions when treated by 1.0 μM of recombinant proteins.

A further data set deals with T2, ShHTL7 (Striga hermonthica, UniProt A0A0M3PNA2).
T2 sequence (A0A0M3PNA2 1-271): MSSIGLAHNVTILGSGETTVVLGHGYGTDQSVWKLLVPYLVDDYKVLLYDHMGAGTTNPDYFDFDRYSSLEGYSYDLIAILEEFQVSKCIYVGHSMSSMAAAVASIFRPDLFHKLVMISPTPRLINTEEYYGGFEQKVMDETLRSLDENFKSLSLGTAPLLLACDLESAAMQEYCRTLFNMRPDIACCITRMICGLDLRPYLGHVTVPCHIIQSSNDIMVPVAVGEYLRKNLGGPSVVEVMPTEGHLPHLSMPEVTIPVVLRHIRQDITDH
Briefly: Intrinsic tryptophan fluorescence assay. The settings on record: ShHTL7 10 μM, mean±SE (n=3); read-out: Kd, affinity of ShHTL7. It counts as binding.
Source text: as §1
ShHTL7 tryptophans were excited at 280 nm and […] emission intensity was measured at 333 nm. ShHTL7 (10 μM) was incubated at various dilutions (0.2, 0.4, 0.8, 1.6, 3.12, 6.25, 12.5, 25 and 50 μM) of GR24 and MPs for 30 minutes at room temperature before measurement. Each concentration point was measured in triplicates. Emitted fluorescence was monitored using spectraMaxi3 (Molecular Devices) plate reader in 96-wells black plates. Changes in tryptophan fluorescence intensity occur due to conformational changes in protein when it is bound to ligand; differences in fluorescence intensity were recorded and analyzed. Data were normalized and dissociation coefficient (Kd) values were calculated by fitting to a binding saturation single-site model with GraphPad (PRISM 6).

The term IC50 denotes the concentration that gives 50% inhibition. For orientation: Kd means the constant that tells how readily two partners part at equilibrium. As to `COC(=O)/C(=C/OC1C=C(C)C(=O)O1)c1ccc(Cl)cc1` (stereo not drawn) [MP7], the “Stability in comparison to GR24” value in data set [1] was “more stable than GR24”. This compound also yielded an IC50 at OsD14 of 4.46 ± 0.8 µM. Also, on ShHTL7, the Kd was 1150 ± 310 nM.

Consider `COC(=O)/C(=C/OC1C=C(C)C(=O)O1)c1ccccc1` (racemic) [MP3, (E)-methyl 3-(4-methyl-5-oxo-2,5-dihydrofuran-2-yloxy)-2-phenylacrylate], for which, in data set [1], the “Stability in comparison to GR24” value is given as “more stable than GR24”. For the same compound, on OsD14, the IC50 was found to be 10.1 ± 2.94 µM. The equilibrium dissociation constant (Kd) on ShHTL7 stood at 10100 ± 5100 nM.

For the compound `COC(=O)/C(=C/OC1C=C(C)C(=O)O1)c1ccc([N+](=O)[O-])cc1` (racemic) [MP1, (E)-methyl 3-(4-methyl-5-oxo-2,5-dihydrofuran-2-yloxy)-2-(4-nitrophenyl)acrylate], the “Stability in comparison to GR24” value in data set [1] is listed as “slightly less stable than GR24”. For the same compound, at OsD14 (with SE (n=3), read-out: IC50, competitive inhibition of OsD14 mediated YLG hydrolysis), the IC50 was 2.41 ± 0.175 µM. The Kd on ShHTL7 was 720 ± 550 nM.

These data come from US11903386B2, “Strigolactone analogs and their usage in plant control” (King Abdullah University of Science and Technology, priority 2016, dated 2024).
